Test results: patent US5631279A, “Perhydroisoindole derivatives, preparation thereof and pharmaceutical compositions containing same” (Rhone-Poulenc Rorer, S.A., priority 1993, dated 1997)

Tested on: rabbit pulmonary artery
Assay: Antagonism of rabbit pulmonary artery contractions induced by [Lys5 MeLeu9 Nle10]NKA(4-10)
Design: species or system rabbit (male, New Zealand albino)
Details: product incubated for 2 hours; [Lys5 MeLeu9 Nle10]NKA(4-10) as agonist; Krebs solution 37° C.
Protocol: The in vitro antagonistic activity of the products is determined with respect to rabbit pulmonary artery contractions induced by [Lys^5 MeLeu^9 Nle^10 ]NKA(4-10) according to the technique described by D. Regoli et al., Trends Pharmacol. Sci, 2, 290-295 (1988) and P. D'Orleans-Juste et al., Eur. J. Pharmacol., 125, 37-44 (1985). The pulmonary artery of the rabbit (male, New Zealand albino) is withdrawn; the endothelium is destroyed by introduction into the arterial lumen of a glass rod coated with filter paper, and the artery is then cut into rings and incubated in an isolated-organ tank containing an oxygenated Krebs solution (95% O2; 5% CO2) at 37° C. at a tension of 1 g. After determining the agonistic activity of [Lys^5 MeLeu9Nle^10 ]NKA(4-10) (contractile effect), the product to be studied is incubated for 2 hours in the isolated-organ tank before a further addition of [Lys^5 MeLeu^9 Nle^10 ]NKA(4-10). The percentage inhibition obtained is calculated. The antagonistic activity of a product is expressed in terms of IC^50.
In the above technique, the products studied display an antagonism to rabbit pulmonary artery contractions at the following concentration: […]

## COc1ccccc1[C@@]1(O)[C@H](O)CC(c2ccccc2)(c2ccccc2)[C@@H]2CN(C(=O)Cc3c[nH]c4ccccc34)C[C@@H]21 [Example 1]
  IC50: 215 nM
